Series [1] in a line: MALDI-MSI drug distribution in infected liver, mouse model of intra-abdominal candidiasis. Format: in vivo. Particulars: single dose 5 mg/kg. The method, then: (§1) A mouse model of IAC was used for this study. Female six to eight week old CD1 mice (Charles River Laboratories) weighing 18-22 g were infected intraperitoneally (IP) with 1×10^7 CFU of C. albicans SC5314 mixed with sterile stool matrix as previously described. […] Mice were sacrificed just before antifungal treatment (n=1), and at 1, 3, 6, 24, and 48 hours post-dose (three mice per group per time point). Livers and kidneys were explored for abscesses >1 mm in diameter, dissected, placed on a cryohistology tray, and snap-frozen in liquid nitrogen and stored at −80° C. for tissue sectioning for MALDI imaging.
(§2) In a further experiment, a low dose of CD101 at 5 mg/kg was administered and micafungin was given at the same dose. Liver and kidney samples were collected at 6 hours and 24 hours post-dose for both MALDI imaging and absolute drug quantification.
(§3) In another separate experiment that aimed at comparing therapeutic level of single dose CD101 and multiple doses of micafungin, a single dose of CD101 at 20 mg/kg was given at day three post-inoculation, and once daily treatment of micafungin at 5 mg/kg starting from day three post-inoculation and a total of three doses of micafungin was administered. Livers and kidneys were collected at 48 hours and 72 hours post first dose of each drug.
Tissues were sectioned at 12 μm thickness using a Leica CM1850 cryostat (Buffalo Grove, Ill.) and mounted onto stainless steel slides (for MALDI-MSI analysis) or frosted glass microscope slides (for H&E staining). Tissue sections were stored at −80° C. until analysis. Prior to MALDI-MSI analysis, tissue sections were thawed and applied with ionization matrix. For CD101, 2,5-dihydroxybenzoic acid (DHB) (20 mg/ml in 50% methanol) containing 267 fmol/μl CD101-D9 (Cidara Therapeutics, Inc) was applied to the surface using a HTX TM sprayer (Chapel Hill, N.C.) operating with 50 μL/min flow rate, 60° C. nozzle temperature and 5 p.s.i. Twenty-five passes over the tissue were performed. For micafungin, 1,5-diaminonaphthalene (1,5-DAN) matrix (5 mg/ml in 50% acetone) containing 5 nmol/μl ^13C6-micafungin (Alsachim, France) was coated onto tissue surface by the TM-sprayer at flow rate of 60 μl/min, 50° C. nozzle temperature and 5 p.s.i. […]
MALDI-MSI analysis was performed using a MALDI LTQ Orbitrap XL mass spectrometer (Thermo Fisher Scientific, Bremen, Germany) with a resolution of 60,000 at m/z 400, full width at half maximum. […] Standards of CD101 and micafungin were analyzed both direct from the stainless steel target plate and spiked into drug-naïve liver tissue to optimize instrument parameters. Limit of detection (LOD) for MALDI-MSI analysis of micafungin and CD101 was 500 ng/g and 1 μg/g of liver or kidney tissue respectively, calculated as described. […]

Series [2] concerns wildtype strains of C. albicans. Particulars: cited from earlier work.
Series [3] is described as follows: Laser-capture microdissection and LC/MS-MS drug quantification in liver lesions and surrounding tissue, mouse IAC model. Format: in vivo. The following applies: for concentration at 24 h / concentration at 6 h: female, CD1, mouse, in vivo, 5 mg/kg; for concentration at 6 h: 6 hours post-dose. The method, then: as §1, §2, §3
Laser-capture microdissection. Necrotic lesion and surrounding tissue areas totaling two to […] were dissected from between three and six serial liver or kidney biopsy tissue sections using a Leica LMD6500 system (Buffalo Grove, Ill.). Lesion areas were identified optically from the brightfield image scan and by comparison to the adjacently-sectioned H&E reference tissue. Pooled dissected lesion tissues were collected into 0.25 ml standard PCR tubes and immediately transferred to the −80° C. freezer for storage.
Prior to analysis, the tubes were thawed at room temperature for 30 minutes. 50 μl of extraction solution (ACN/MeOH (1/1) with 100 ng/ml CD101-D9 and 100 ng/ml ^13C6-micafungin) was added to each tube, which were then sonicated for five min and centrifuged at 10000 RPM for five min at room temperature. 40 μl of supernatant was transferred for LC/MS-MS analysis and diluted with an additional 40 μl of MilliQ water.
Neat 1 mg/ml DMSO stocks for all compounds were serial diluted in 50/50 acetonitrile water to create standard curves and quality control spiking solutions. 3 μl of neat spiking solutions were added to 2 μl of lesion homogenate and extraction was performed by adding 50 μl of extraction solution (ACN/MeOH (1/1) with 100 ng/ml CD101-D9 and 100 ng/ml ^13C6-micafungin). Extracts were vortexed for five minutes and centrifuged at 10000 RPM for five min. A 40 μl of supernatant was transferred for LC/MS-MS analysis and diluted with an additional 40 μl of MilliQ water. Previously optimized LC/MS-MS parameters were used for analysis (see LC/MS-MS section).
LC-MS analysis was performed on a Q Exactive high resolution mass spectrometer (Thermo Fisher Scientific, Waltham, Mass.) coupled to a Thermo Scientific Dionex UltiMate 3000 binary system. Chromatography was performed with a Kinetex C18 column (2.1×50 mm; particle size 1.7 μm, Phenomenex, Torrance, Calif.) using a reverse phase gradient elution, ACN:H2O (60:40) and 10 mM ammonium acetate for mobile phase A and IPA:ACN:MeOH (80:10:10) and 10 mM ammonium acetate for mobile phase B. A flow rate of 300 μl/min was used, with a gradient consisting of 20% B held for 0.5 min, followed by linear increase to 95% in 3.5 min, held for 2.2 min and return to the initial 20% B in 0.3 min. The column was equilibrated for 1.5 min before the next injection, and the temperature of column and sample tray were held at 50 and 4° C., respectively. The column retention time for CD101 and micafungin was 3.32 min and 3.2 min respectively.
Key MS parameters were as follow: the spray voltage, 3.5 kV; capillary temperature, 320° C.; HESI probe temperature, 400° C.; S-lens RF level, 50. […]

Series [4] concerns wildtype strains of C. glabrata. The following applies: cited from earlier work.

Where two headings read alike, the source gives them in different places. Numbered stars: 1 amine (or outer) side, 2 acyl side, 3 side chain; on linkers, the order of the positions; unused ones are H or OH. Bridge positions count the residues as written; N and C are the ends. Square brackets hold non-standard residues; d marks the D form. Peptide text beside a SMILES is read from it. * marks the point of attachment. hTyr(3S-OH,4S-OH,3'-OSO3H) = N[C@H](C(=O)O)[C@H](O)[C@@H](O)c1ccc(O)c(OS(=O)(=O)O)c1; Orn(4R-OH,5R-OH) = O=C([C@H](C[C@@H](O)[C@@H](O)N[*:3])N[*:1])[*:2]; Pro(3S-OH,4S-Me) = C[C@H]1CN[C@H](C(=O)O)[C@H]1O; X1 = CCCCCOc1ccc(-c2cc(-c3ccc(C(=O)*)cc3)no2)cc1; Gln(3R-OH) = NC(=O)C[C@@H](O)[C@H](N)C(=O)O; Hyp = O=C(O)[C@@H]1C[C@@H](O)CN1

As for `CCCCCOc1ccc(-c2cc(-c3ccc(C(=O)N[C@H]4C[C@@H](O)[C@@H](O)NC(=O)[C@@H]5[C@@H](O)[C@@H](C)CN5C(=O)[C@H]([C@H](O)CC(N)=O)NC(=O)[C@H]([C@H](O)[C@@H](O)c5ccc(O)c(OS(=O)(=O)O)c5)NC(=O)[C@@H]5C[C@@H](O)CN5C(=O)[C@H]([C@@H](C)O)NC4=O)cc3)no2)cc1` [micafungin] (X1-[Orn(4R-OH,5R-OH)]T[Hyp][hTyr(3S-OH,4S-OH,3'-OSO3H)][Gln(3R-OH)][Pro(3S-OH,4S-Me)]; lactam 1-C), the “time of peak drug intensity in liver tissues (MALDI-MSI)” value in series [1] worked out at 1 h. For the same molecule, in series [1] (no further dosing), the “drug signal in liver at 48 hours (MALDI-MSI)” value is reported as “no drug signals were detected”. The “drug exposure within necrotic center of lesion (MALDI-MSI)” value in series [1] (24 hours) is given as “no detectable drug exposure”. The “time at which drug signal first detectable in lesions (at lesion edge, MALDI-MSI)” value in series [1] (liver) came to 6 h. Further, the “mutant prevention concentration (MPC)” value in series [2] and in series [4] was 16 µg/mL each time. Also, the “drug level in liver lesions” value in series [3] (5 mg/kg once daily, 24 hours post third dose (steady-state)) is “under 5 μg/ml”. For the same molecule, the concentration at 24 h in series [3] (5 mg/kg once daily, 24 hours post second dose, read-out: drug level in liver lesions) came to 3500 ng/mL; in series [3] (5 mg/kg once daily, 24 hours post third dose (steady-state), read-out: drug level in liver lesions) it was 4900 ng/mL; in series [3] (5 mg/kg once daily, steady-state after three doses, read-out: drug level in surrounding non-lesion liver tissues), 500 ng/mL; in series [3] (ip, single IP dose 5 mg/kg, 24 hours post-dose, read-out: drug concentration in liver lesions), 3400 ng/mL; in series [3] (ip, single IP dose 5 mg/kg, 24 hours post-dose, read-out: drug concentration in uninvolved surrounding liver tissue) it was 1000 ng/mL. In addition, the concentration at 6 h amounted to 4900 ng/mL in series [3] (ip, single IP dose 5 mg/kg, read-out: drug concentration in liver lesions) and 6500 ng/mL in series [3] (ip, single IP dose 5 mg/kg, read-out: drug concentration in uninvolved surrounding liver tissue).

Source of the values: patent publication US20200164023A1, “METHODS FOR PREVENTING AND TREATING INTRA-ABDOMINAL CANDIDIASIS” (Cidara Therapeutics, Inc., priority 2017, published 2020).
